In one data set the test system is HCV genotype 1. As to conditions: added to sofosbuvir and ledipasvir, 6 week triple-drug regimens; cited from earlier work.
The nature of data set [1]: Plasma concentrations of anti-HCV drugs by LC-MS/MS. It counts as in vivo, human. The method, then: Plasma samples from patients infected with HCV were stored in aliquots at −80° C. until further processing. Viral RNA was extracted and the genome sequenced using an Applied Biosystems 3730×1 DNA analyser as previously described.^21 Data were analysed with the ABL-DeepChek-HCV 1.4 software (ABL SA, Luxembourg, Luxembourg). To confirm compliance, a liquid chromatography-tandem mass spectrometry (LC-MS/MS) method was developed to detect and quantify the anti-HCV drug concentrations in plasma collected from each patient. Briefly, blood samples were collected from 25 patients at 8 h, 24 h, and 48 h after initiating treatment. 50 μL of plasma was extracted with 3 mL of ethyl acetate containing abacavir (as an internal standard). The supernatant was collected, air dried, then reconstituted in 2 mmol/L ammonium acetate solution with 75% methanol. Five target compounds were simultaneously monitored and quantified by LC-MS/MS in the multiple reaction monitoring mode, including sofosbuvir (m/z 530.2/243.2), daclatasvir (m/z 739.5/339.3), ledipasvir (m/z 889.4/637.3), asunaprevir (m/z 748.4/648.4), and simeprevir (m/z 750.4/315.2). A Dionex Ultimate 3000 HPLC system (Thermo Scientific, Waltham, Mass., USA) coupled with an AB SCIEX API5000 triple quadrupole mass spectrometer (AB SCIEX, Framingham, Mass., USA) was used for analysis.
Fifty μL plasma was extracted with 3 mL of ethyl acetate containing abacavir (as internal standard). The supernatant was collected, air-dried then reconstituted in 2 mM ammonium acetate solution with 75% methanol. Five target compounds were simultaneously monitored and quantified by LC-MS/MS in the multiple reaction monitoring (MRM) mode, including sofosbuvir (m/z 530.2à243.2), daclatasvir (m/z 739.5à339.3), ledipasvir (m/z 889.4à637.3), asunaprevir (m/z 748.4à648.4) and simeprevir (m/z 750.4à315.2). SOF concentrations were measured with a wide range from BLOQ to 3,174 ng/mL; LDV and DCV were in the range of BLOQ to 469 ng/mL and 101 to 3045 ng/mL; ASV and SMV were in the range of BLOQ to 626 ng/mL and 30.6 to 693 ng/mL, respectively.

“And” between values parts separate entries of the source, which are not always exact repeats. Identical values can stand only once.

In the case of `CC1=CC[C@H](C(=O)N(c2cc(C#CC(C)(C)C)sc2C(=O)O)[C@H]2CC[C@](O)(CO[C@H]3CCOC3)CC2)CC1` [GS-9669], the “Patients with SVR12” value in the data set with HCV genotype 1 is recorded as 95%.

With `CC[C@@H]1C[C@]1(NC(=O)[C@@H]1C[C@@H](Oc2cc(-c3csc(NC(C)C)n3)nc3c(Cl)c(OCCN4CCOCC4)ccc23)CN1C(=O)[C@@H](NC(=O)O[C@@H]1C[C@@H]2C[C@@H]2C1)C(C)(C)C)C(=O)O` [GS-9451], the “Patients with SVR12” value with HCV genotype 1 is listed as 95%.

Consider `CC(C)OC(=O)[C@H](C)N[P@](=O)(OC[C@H]1O[C@@H](n2ccc(=O)[nH]c2=O)[C@](C)(F)[C@@H]1O)Oc1ccccc1` [SOF, Sofosbuvir], for which the “Range of measured plasma concentrations” value in data set [1] (all subjects, 8, 24 and 48 hr after first treatment, BLOQ = below LOQ) is recorded as ≤ 3,174 ng/mL. The concentration at 8 h in data set [1] (human, in vivo, individual subjects on SOF + DCV + ASV Then SOF + LDV, >3 weeks treatment, 8 h) was 9.99 ng/mL; in data set [1] (human, in vivo, individual subjects on SOF + LDV + ASV Then SOF + LDV, >3 weeks treatment, 8 h) it was 0.67 ng/mL. For the same compound, the concentration at 24 h amounted to 11.2 ng/mL in data set [1] (human, in vivo, individual subjects on SOF + DCV + ASV Then SOF + LDV, >3 weeks treatment, 24 h) and 2410 ng/mL in data set [1] (human, in vivo, individual subjects on SOF + DCV + SMV, 3 weeks treatment, 24 h). For the same compound, the concentration at 48 h in data set [1] (human, in vivo, individual subjects on SOF + DCV + ASV Then SOF + LDV, >3 weeks treatment, 48 h) was found to be 631 ng/mL. The Plasma concentration was 0.55 ng/mL and 0.28 ng/mL and 2.03 ng/mL and 13.5 ng/mL and 0.47 ng/mL in data set [1] (individual subjects on SOF + DCV + ASV, 3 weeks treatment, 8 h); 1.09 ng/mL and 0.28 ng/mL and 0.27 ng/mL and 192 ng/mL and 256 ng/mL in data set [1] (individual subjects on SOF + DCV + ASV, 3 weeks treatment, 24 h); 1.41 ng/mL and 0.80 ng/mL and 7.55 ng/mL and 292 ng/mL and 12.7 ng/mL and 1807 ng/mL in data set [1] (individual subjects on SOF + DCV + ASV, 3 weeks treatment, 48 h); 2.35 ng/mL and 0.26 ng/mL and 14.7 ng/mL and 0.42 ng/mL and 1.45 ng/mL in data set [1] (individual subjects on SOF + DCV + SMV, 3 weeks treatment, 8 h); 2114 ng/mL and 1923 ng/mL in data set [1] (individual subjects on SOF + DCV + SMV, 3 weeks treatment, 24 h); 3174 ng/mL and 1796 ng/mL and 1549 ng/mL and 1227 ng/mL in data set [1] (individual subjects on SOF + DCV + SMV, 3 weeks treatment, 48 h). The Plasma concentration was 0.58 ng/mL in data set [1] (individual subjects on SOF + LDV + ASV Then SOF + LDV, >3 weeks treatment, 8 h); 202 ng/mL and 1591 ng/mL and 0.61 ng/mL in data set [1] (individual subjects on SOF + LDV + ASV Then SOF + LDV, >3 weeks treatment, 24 h); 7.17 ng/mL and 5.52 ng/mL and 4.22 ng/mL and 18.2 ng/mL and 4.54 ng/mL and 10.4 ng/mL in data set [1] (individual subjects on SOF + LDV + ASV, 3 weeks treatment, 8 h after initiating treatment); 0.94 ng/mL and 8.92 ng/mL and 1.23 ng/mL and 2.13 ng/mL and 1.17 ng/mL and 0.99 ng/mL in data set [1] (individual subjects on SOF + LDV + ASV, 3 weeks treatment, 24 h); 4.76 ng/mL and 6.35 ng/mL and 0.64 ng/mL and 1.59 ng/mL and 0.92 ng/mL and 0.81 ng/mL in data set [1] (individual subjects on SOF + LDV + ASV, 3 weeks treatment, 48 h).

The values are drawn from US20180311268A1, “RESPONSE-GUIDED HCV THERAPY” (EMORY UNIVERSITY, priority 2015, published 2018).
